Key:
Type in all cases: functional
CCRF-CEM [1] = experiment: Cytotoxicity against human CCRF-CEM cells assessed as growth inhibition after 48 hrs by sulforhodamine B assay
HOP-62 [2] = experiment: Cytotoxicity against human HOP62 cells assessed as growth inhibition after 48 hrs by sulforhodamine B assay; conditions: HOP-62, 48 h
NCI-H23 [3] = experiment: Cytotoxicity against human NCI-H23 cells assessed as growth inhibition after 48 hrs by sulforhodamine B assay; conditions: NCI-H23, 48 h; for CC50: read-out: LC50 (the source's name)
SF-268 = experiment: Cytotoxicity against human SF268 cells assessed as growth inhibition after 48 hrs by sulforhodamine B assay; conditions: SF-268, 48 h; for CC50: read-out: LC50 (the source's name)
MDA-MB-468 = experiment: Cytotoxicity against human MDA-MB-468 cells assessed as growth inhibition after 48 hrs by sulforhodamine B assay; conditions: MDA-MB-468, 48 h
SW-620 [4] = experiment: Cytotoxicity against human SW620 cells assessed as cell growth at 0.01 uM after 48 hrs by sulforhodamine B assay relative to control; conditions: SW-620, 48 h, read-out: Activity
RPMI-8226 = experiment: Cytotoxicity against human RPMI8226 cells assessed as cell growth at 0.01 uM after 48 hrs by sulforhodamine B assay relative to control; conditions: RPMI-8226, 48 h, read-out: Activity
MCF7 = experiment: Cytotoxicity against human MCF7 cells assessed as cell growth at 0.01 uM after 48 hrs by sulforhodamine B assay relative to control; conditions: MCF7, 48 h, read-out: Activity
U-251 = experiment: Cytotoxicity against human U251 cells assessed as cell growth at 0.1 uM after 48 hrs by sulforhodamine B assay relative to control; conditions: U-251, 48 h, read-out: Activity
OVCAR-3 [5] = experiment: Cytotoxicity against human OVCAR3 cells assessed as cell growth at 0.1 uM after 48 hrs by sulforhodamine B assay relative to control; conditions: OVCAR-3, 48 h, read-out: Activity
UO-31 = experiment: Cytotoxicity against human UO31 cells assessed as cell growth at 0.1 uM after 48 hrs by sulforhodamine B assay relative to control; conditions: UO-31, 48 h, read-out: Activity
T47D = experiment: Cytotoxicity against human T47D cells assessed as cell growth at 0.1 uM after 48 hrs by sulforhodamine B assay relative to control; conditions: read-out: Activity
MOLT-4 = experiment: Cytotoxicity against human MOLT4 cells assessed as cell growth at 1 uM after 48 hrs by sulforhodamine B assay relative to control; conditions: MOLT-4, 48 h, read-out: Activity
SR = experiment: Cytotoxicity against human SR cells assessed as cell growth at 1 uM after 48 hrs by sulforhodamine B assay relative to control; conditions: read-out: Activity
HCT-15 = experiment: Cytotoxicity against human HCT15 cells assessed as cell growth at 1 uM after 48 hrs by sulforhodamine B assay relative to control; conditions: HCT-15, 48 h, read-out: Activity
OVCAR-3 [6] = experiment: Cytotoxicity against human OVCAR3 cells assessed as cell growth at 1 uM after 48 hrs by sulforhodamine B assay relative to control; conditions: OVCAR-3, 48 h, read-out: Activity
786-0 = experiment: Cytotoxicity against human 786-0 cells assessed as cell growth at 1 uM after 48 hrs by sulforhodamine B assay relative to control; conditions: 786-0, 48 h, read-out: Activity
MDA-MB-231 = experiment: Cytotoxicity against human MDA-MB-231 cells assessed as cell growth at 1 uM after 48 hrs by sulforhodamine B assay relative to control; conditions: MDA-MB-231, 48 h, read-out: Activity
Hs-578T = experiment: Cytotoxicity against human Hs 578T cells assessed as cell growth at 1 uM after 48 hrs by sulforhodamine B assay relative to control; conditions: read-out: Activity
HL-60(TB) = experiment: Cytotoxicity against human HL-60(TB) cells assessed as cell growth at 10 uM after 48 hrs by sulforhodamine B assay relative to control; conditions: HL-60, 48 h, read-out: Activity
HOP-62 [7] = experiment: Cytotoxicity against human HOP62 cells assessed as cell growth at 10 uM after 48 hrs by sulforhodamine B assay relative to control; conditions: HOP-62, 48 h, read-out: Activity
NCI-H23 [8] = experiment: Cytotoxicity against human NCI-H23 cells assessed as cell growth at 10 uM after 48 hrs by sulforhodamine B assay relative to control; conditions: NCI-H23, 48 h, read-out: Activity
NCI-H322M = experiment: Cytotoxicity against human NCI-H322M cells assessed as cell growth at 10 uM after 48 hrs by sulforhodamine B assay relative to control; conditions: read-out: Activity
NCI-H460 = experiment: Cytotoxicity against human NCI-H460 cells assessed as cell growth at 10 uM after 48 hrs by sulforhodamine B assay relative to control; conditions: NCI-H460, 48 h, read-out: Activity
KM12 = experiment: Cytotoxicity against human KM12 cells assessed as cell growth at 10 uM after 48 hrs by sulforhodamine B assay relative to control; conditions: KM12, 48 h, read-out: Activity
SNB-19 = experiment: Cytotoxicity against human SNB19 cells assessed as cell growth at 10 uM after 48 hrs by sulforhodamine B assay relative to control; conditions: SNB-19, 48 h, read-out: Activity
M14 = experiment: Cytotoxicity against human M14 cells assessed as cell growth at 10 uM after 48 hrs by sulforhodamine B assay relative to control; conditions: M14, 48 h, read-out: Activity
SK-MEL-28 = experiment: Cytotoxicity against human SK-MEL-28 cells assessed as cell growth at 10 uM after 48 hrs by sulforhodamine B assay relative to control; conditions: SK-MEL-28, 48 h, read-out: Activity
PC-3 = experiment: Cytotoxicity against human PC3 cells assessed as cell growth at 10 uM after 48 hrs by sulforhodamine B assay relative to control; conditions: PC-3, 48 h, read-out: Activity
CCRF-CEM [9] = experiment: Cytotoxicity against human CCRF-CEM cells assessed as cell growth at 100 uM after 48 hrs by sulforhodamine B assay relative to control; conditions: read-out: Activity
NCI-H522 = experiment: Cytotoxicity against human NCI-H522 cells assessed as cell growth at 100 uM after 48 hrs by sulforhodamine B assay relative to control; conditions: NCI-H522, 48 h, read-out: Activity
SW-620 [10] = experiment: Cytotoxicity against human SW620 cells assessed as cell growth at 100 uM after 48 hrs by sulforhodamine B assay relative to control; conditions: SW-620, 48 h, read-out: Activity
IGROV-1 = experiment: Cytotoxicity against human IGROV1 cells assessed as cell growth at 100 uM after 48 hrs by sulforhodamine B assay relative to control; conditions: IGROV-1, 48 h, read-out: Activity
SN12C = experiment: Cytotoxicity against human SN12C cells assessed as cell growth at 100 uM after 48 hrs by sulforhodamine B assay relative to control; conditions: read-out: Activity
SK-MEL-2 = experiment: Cytotoxicity against human SK-MEL-2 cells assessed as growth inhibition after 48 hrs by sulforhodamine B assay; conditions: SK-MEL-2, 48 h

COc1cc2c(cc1OC)C(=O)/C(=C/c1cc(-c3ccc4c(c3)OCO4)n[nH]1)C2
GI50 (CCRF-CEM [1]): 1.14 µM
LC50 (concentration killing 50% of cells) (CCRF-CEM [1]): > 100 µM
TGI (CCRF-CEM [1]): 3.61 µM
GI50 (HOP-62 [2]): 1.53 µM
LC50 (HOP-62 [2]): 5.72 µM
TGI (HOP-62 [2]): 2.96 µM
GI50 (NCI-H23 [3]): 1.87 µM
TGI (NCI-H23 [3]): 3.91 µM
CC50 (NCI-H23 [3]): 8.19 µM
GI50 (SF-268): 1.63 µM
TGI (SF-268): 3.37 µM
CC50 (SF-268): 6.99 µM
GI50 (MDA-MB-468): 1.07 µM
LC50 (MDA-MB-468): 5.44 µM
TGI (MDA-MB-468): 2.41 µM
growth at 0.01 µM (SW-620 [4]): 98%
growth at 0.01 µM (RPMI-8226): 100%
growth at 0.01 µM (MCF7): 96%
growth at 0.1 µM (U-251): 95%
growth at 0.1 µM (OVCAR-3 [5]): 101%
growth at 0.1 µM (UO-31): 85%
growth at 0.1 µM (T47D): 95%
growth at 1 µM (MOLT-4): 97%
growth at 1 µM (SR): 38%
growth at 1 µM (HCT-15): 56%
growth at 1 µM (OVCAR-3 [6]): 75%
growth at 1 µM (786-0): 88%
growth at 1 µM (MDA-MB-231): 88%
growth at 1 µM (Hs-578T): 92%
growth at 10 µM (HL-60(TB)): -29%
growth at 10 µM (HOP-62 [7]): -92%
growth at 10 µM (NCI-H23 [8]): -63%
growth at 10 µM (NCI-H322M): -90%
growth at 10 µM (NCI-H460): -59%
growth at 10 µM (KM12): -87%
growth at 10 µM (SNB-19): -95%
growth at 10 µM (M14): -87%
growth at 10 µM (SK-MEL-28): -92%
growth at 10 µM (PC-3): -75%
growth at 100 µM (CCRF-CEM [9]): -38%
growth at 100 µM (NCI-H522): -92%
growth at 100 µM (SW-620 [10]): -71%
growth at 100 µM (IGROV-1): -82%
growth at 100 µM (SN12C): -96%

COc1cc(C(=O)/C=C/c2cc(-c3cc(OC)c(OC)c(OC)c3)n[nH]2)cc(OC)c1OC
LC50 (concentration killing 50% of cells) (CCRF-CEM [1]): > 100 µM
LC50 (HOP-62 [2]): 5.74 µM
TGI (HOP-62 [2]): 2.89 µM
TGI (NCI-H23 [3]): 9.9 µM
CC50 (NCI-H23 [3]): 64.3 µM
TGI (SF-268): 4.58 µM
CC50 (SF-268): 14.2 µM
LC50 (concentration killing 50% of cells) (SK-MEL-2): 8.32 µM
TGI (SK-MEL-2): 4.04 µM
GI50 (MDA-MB-468): 1.15 µM
LC50 (MDA-MB-468): 5.37 µM
TGI (MDA-MB-468): 2.48 µM
growth at 0.01 µM (SW-620 [4]): 96%
growth at 0.01 µM (RPMI-8226): 97%
growth at 0.01 µM (MCF7): 95%
growth at 0.1 µM (U-251): 94%
growth at 0.1 µM (OVCAR-3 [5]): 105%
growth at 0.1 µM (UO-31): 90%
growth at 0.1 µM (T47D): 92%
growth at 1 µM (MOLT-4): 81%
growth at 1 µM (SR): 22%
growth at 1 µM (HCT-15): 76%
growth at 1 µM (OVCAR-3 [6]): 97%
growth at 1 µM (786-0): 80%
growth at 1 µM (MDA-MB-231): 73%
growth at 1 µM (Hs-578T): 80%
growth at 10 µM (HL-60(TB)): -28%
growth at 10 µM (HOP-62 [7]): -91%
growth at 10 µM (NCI-H322M): -41%
growth at 10 µM (NCI-H460): -51%
growth at 10 µM (KM12): -90%
growth at 10 µM (SNB-19): -62%
growth at 10 µM (M14): -90%
growth at 10 µM (SK-MEL-28): -92%
growth at 10 µM (PC-3): -69%
growth at 100 µM (CCRF-CEM [9]): 2%
growth at 100 µM (NCI-H522): -98%
growth at 100 µM (SW-620 [10]): -95%
growth at 100 µM (IGROV-1): -97%
growth at 100 µM (SN12C): -97%
